Results as given in patent US12629364B2, “Methods of treating cancers overexpressing CARM1 with EZH2 inhibitors and platinum-based antineoplastic drugs” (The Wistar Institute of Anatomy and Biology, priority 2016, dated 2026).

Legend:
[1] = tested on: promoter regions of the human DAB2, DLC1, NOXA and TIMP3 genes; assay: ChIP-qPCR at target gene promoters; type: cell-based; conditions: A1847 cells
From the text: FIGS. 58 to 61 illustrate the results of a ChIP analysis using anti-EZH2 (FIG. 58), anti-H3K27Me3 (FIG. 59), anti-BAF155 (FIG. 60), or anti-RNA Pol II (FIG. 61) antibodies. An isotype matched IgG was used as a negative control. ChIP products were subjected to qPCR analysis using primers specific for the promoter regions of the human DAB2, DLC1, and NOXA genes. Data is representative of three independent experiments. *p<0.001 compared with IgG controls and #p<0.001 compared with parental controls.
FIGS. 62 to 65 illustrate the results of a ChIP analysis in parental control and CARM1 knockout A1847 cells treated with 10 μM GSK 126 or vehicle controls. The cells were subjected to ChIP analysis using anti-EZH2 (FIG. 62), anti-H3K27Me3 (FIG. 63), anti-BAF155 (FIG. 64), or anti-RNA Pol II (FIG. 65) antibodies. An isotype-matched IgG was used as a negative control. ChIP products were subjected to qPCR analysis using primers specific for the promoter regions of the human TIMP3 genes. Mean of three independent experiments with SEM. *p<0.001 compared with controls.
ChIP was performed as described in Tu et al. Developmental Cell (2011) 21:1077-91. The following antibodies were used to perform ChIP: anti-H3K27Me3 (Cell Signaling, Cat. No: 9733), anti-BAF155 (Santa Cruz, Cat. No: sc-9746), anti-RNA polymerase II (Santa Cruz, Cat. No: sc-899) or anti-EZH2 (Cell Signaling, Cat. No: 5246). An isotype matched IgG was used as a negative control. ChIP DNA was analyzed by quantitative PCR against the promoter of the indicated genes using the following primers: DAB2 Forward: 5′-[…]-3′ (SEQ ID NO: 10) and DAB2 Reverse: 5′-[…]-3′ (SEQ ID NO: 11); DLC1 Forward: 5′-[…]-3′ (SEQ ID NO: 12) and DLC1 Reverse: 5′-[…]-3′ (SEQ ID NO: 13); NOXA Forward: 5′-[…]-3′ (SEQ ID NO: 14) and NOXA Reverse: 5′-[…]-3′ (SEQ ID NO: 15); TIMP3 Forward: 5′-[…]-3′ (SEQ ID NO: 16) and TIMP3 Reverse: 5′-[…]-3′ (SEQ ID NO: 17).

[2] = tested on: CARM1-expressing A1847 tumors; assay: Intrabursal orthotopic xenograft, CARM1-expressing A1847 cells; type: in vivo, NSG mice; conditions: 50 mg/kg daily i.p., three weeks
Method: FIG. 76 illustrates images of reproductive tracks with tumors from control or GSK126 treated mice. CARM1-high A1847 ovarian cancer cells were unilaterally injected into the ovarian bursa sac of immunocompromised mice (n=5/group). Tumors were allowed to establish for one week before the mice were randomized into two different treatment groups. Mice were treated with vehicle control or GSK126 (50 mg/kg daily) for an additional three weeks. At the end of treatment, the mice were euthanized.
FIG. 77 illustrates tumor weights for the tumors described in FIG. 76. Tumor weight was measured as a surrogate for tumor burden from the control and GSK126 treated mice.
FIG. 78 illustrates the percent survival for the animals treated in FIG. 76. After stopping treatment, the mice from the indicated groups were followed for survival. […] P-value was calculated by log-rank test.
The protocols were approved by the Institutional Animal Care and Use Committee (IACUC). For in vivo experiments, the sample size of 5 mice per group was determined based on the data shown from in vitro experiments. […] At the end of the experiments, tumors were surgically dissected and tumor burden was calculated based on tumor weight. For survival experiments, after stopping the treatment, the mice were followed for mortality or when the tumor burden reached 10% of body weight as determined by The Wistar Institute IACUC guideline.

[3] = tested on: A1847 parental and CARM1 knockout cells; assay: Epigenetic targeting small molecule set screen (14-day colony formation); type: cell-based, Human; conditions: A1847 parental vs CARM1 knockout; 14 days; normalized to vehicle
Method: FIG. 26 illustrates that CARM1-expressing cells are selectively sensitized to EZH2 inhibitors. Equal number of parental control or CARM1 knockout […] cells were plated and treated with each of the 23 individual epigenetic inhibitors for 14 days. The media with the inhibitors was refreshed every 3 days. Cell growth was quantified as integrated density using NIH Image J software. Quantification of the average integrated density graphed as a scatter plot. The X-axis indicates the relative growth of treated CARM1 high parental […] cells compared with DMSO vehicle controls. Y-axis indicates the relative growth of treated CARM1 knockout […] cells compared with DMSO vehicle controls. n=4; and error bars represents SEM. FIG. 27 illustrates a table of EZH2 inhibitors that are selective against CARM1 expression. CARM1-high parental controls and CARM1 knockout […] cells were treated with the indicated concentration of the small molecules in a 14-day colony formation assay. Integrated density for each well was calculated using NIH Image J software. The relative growth of the indicated cells was determined by normalizing to the vehicle control treated cells. n=4 and p-value was calculated using a two-tailed t-test. FIG. 28 illustrates representative images of colonies formed by the cells treated with the indicated inhibitors. GSK126 and UNC1999 representative positive hits from the screen. […] parental and CARM1 knockout cells were plated in 24-well plates and treated with 24 epigenetic compounds. Cell medium was changed every three days with appropriate drug doses for 14 days or until control wells became confluent. Colonies were washed twice with PBS and fixed with 10% methanol and 10% acetic acid in distilled water. Fixed colonies were stained with 0.005% crystal violet. Integrated density was measured using NIH ImageJ software as a surrogate for cell growth.

For `CC[C@H](C)n1cc(C)c2c(C(=O)NCc3c(C)cc(C)[nH]c3=O)cc(-c3ccc(N4CCNCC4)nc3)cc21` [GSK126, (S)-1-(sec-butyl)-N-((4,6-dimethyl-2-oxo-1,2-dihydropyridin-3-yl)methyl)-3-methyl-6-(6-(piperazin-1-yl)pyridin-3-yl)-1H-indole-4-carboxamide], the “association of BAF155 and Pol II with the TIMP3 promoter” value ([1]; 10 μM) was “CARM1 KO but not EZH2 inhibitor GSK 126 treatment decreased the association”, the “EZH2's association with its target genes” value ([1]; DAB2, DLC1, NOXA loci) was “without affecting EZH2's association with its target genes” and the “H3K27Me3 occupancy of target genes” value ([1]; DAB2, DLC1, NOXA loci) was “decreased H3K27Me3 occupancy”. The “tumor growth (tumor weight)” value [2] was “significantly inhibited” and the “selective growth suppression of CARM1-expressing versus CARM1 KO cells” value [3] was “showed selectivity against CARM1-expressing cells”.
